In publication PMC10892536, “Establishment and Validation of a Transdermal Drug Delivery System for the Anti-Depressant Drug Citalopram Hydrobromide” (Molecules, 2024):
Structures can show the parent of a compound that is named as a salt.

Assay: In vivo pharmacokinetic study in rabbits
Conditions: oral gavage, n = 6
Protocol: CTH in the samples was quantified using a CoM 6000 HPLC system (CoMetro Technology, South Plainfield, NJ, USA) with a Comatex C18-AB column (250 × 4.6 mm, 5 μm; 115 Corp, Plainfield, NJ, USA) at 238 nm. The mobile phase was 0.1 mol/L acetonitrile, 0.1 mol/L ammonium acetate, and 0.01 mol/L heptane sodium sulfonate at a ratio of 5:5:1 (v/v). The flow rate was 1.0 mL/min, and the column temperature was 25 °C. All sample solutions were degassed and the injection volume was maintained at 20 μL [44, 53]. The particular application detail on the CoM 6000 HPLC system referred to a previous introduction in our laboratory.
The rabbits were assigned to one of the following three groups: A, B, or C. The abdominal hair of the rabbits in groups B and C was shaved off with an electric hair remover, and after cleaning the skin with normal saline, the optimized TDDS was applied to the abdomens of […] in group B, and blank patches were applied to the abdomens of rabbits in group C. Group A was administered CTH by oral gavage. The oral gavage procedure involved fixing the rabbits with an animal fixator and placing a special mouth expander with a rope attached to their mouth. An elastic rubber catheter was inserted through a small round hole in the mouth expander and pushed into the esophagus along the posterior pharyngeal wall. A solution consistent with the TDDS concentration was added. After gastric perfusion, the catheter and mouth opener were removed. Next, 1 mL aliquots of blood were collected from the marginal auricular vein of the experimental animals at different time intervals (1, 2, 4, 7, 12, and 24 h), placed in heparinized tubes, and centrifuged at 1500× g for 10 min. The resulting plasma supernatant was stored at −70 °C until further analysis. HPLC analyses were carried out by transferring 200 μL of the supernatant to a 1.5 mL polyethylene centrifuge tube. The tubes were then mixed with 300 μL acetonitrile, centrifuged at 2500× g for 10 min, and filtered through a 0.22 μm membrane.
The pharmacokinetic parameters of the conventional oral and sustained-release transdermal preparations were analyzed, including the maximum plasma concentration of the drug (Cmax), the time to reach the Cmax (Tmax), the mean residence time (MRT), and the area under the plasma concentration–time curve from time 0 to t (AUC(0-t)). Two-tailed Student’s t-tests were performed for the Cmax and AUC(0-t) analyses, and a non-parametric test was performed for the Tmax analysis. The AUC(0-t) was calculated using the trapezoidal rule.

CN(C)CCCC1(c2ccc(F)cc2)OCc2cc(C#N)ccc21 (stereo not shown) [CTH, citalopram hydrobromide]
AUC(0-t): 8460.37 ± 996.43 ng/h/mL | Cmax (rabbit, plasma): 4900 ± 396 ng/mL | MRT (rabbit, plasma): 2.4 ± 0.25 h | Tmax (rabbit, plasma): 1 h
